Reference: ChEMBL document CHEMBL1156890, “Semi-synthetic aristolactams--inhibitors of CDK2 enzyme” (Bioorg Med Chem Lett, 2010)
Activity calls are given as the source filed them. The calls are words filed in the database; no cut-off is given here.

Legend:
[1] = target: T1, Cyclin-dependent kinase 2 (Homo sapiens, UniProt P24941); experiment: Inhibition of CDK2 at 50 uM
[2] = target: T1, Cyclin-dependent kinase 2; experiment: Inhibition of CDK2
MCF7 [3] = experiment: Antiproliferative activity against human MCF7 cells by clonogenicity assay; format: functional, cell-based
Aurora kinase A = target: T2, Aurora kinase A (Homo sapiens, UniProt O14965); experiment: Inhibition of AUR2
T2 sequence (O14965 whole entry): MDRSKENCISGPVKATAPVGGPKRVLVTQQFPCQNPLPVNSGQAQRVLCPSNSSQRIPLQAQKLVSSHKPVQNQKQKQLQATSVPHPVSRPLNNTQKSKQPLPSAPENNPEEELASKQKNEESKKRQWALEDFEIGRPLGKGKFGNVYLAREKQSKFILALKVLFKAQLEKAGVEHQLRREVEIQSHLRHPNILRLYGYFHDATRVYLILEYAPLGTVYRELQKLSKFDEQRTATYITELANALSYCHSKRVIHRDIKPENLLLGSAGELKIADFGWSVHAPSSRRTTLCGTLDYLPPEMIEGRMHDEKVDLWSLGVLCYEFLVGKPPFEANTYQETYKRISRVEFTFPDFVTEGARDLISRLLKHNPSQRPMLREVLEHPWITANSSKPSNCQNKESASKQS

MCF7 [4] = experiment: Antiproliferative activity against human MCF7 cells by soft agar growth assay; format: functional, cell-based
[5] = Inhibition of MAPK
[6] = target: Cyclin-dependent kinase 4 (Homo sapiens, UniProt P11802); experiment: Inhibition of CDK4
Chain of Cyclin-dependent kinase 4 (P11802 whole entry): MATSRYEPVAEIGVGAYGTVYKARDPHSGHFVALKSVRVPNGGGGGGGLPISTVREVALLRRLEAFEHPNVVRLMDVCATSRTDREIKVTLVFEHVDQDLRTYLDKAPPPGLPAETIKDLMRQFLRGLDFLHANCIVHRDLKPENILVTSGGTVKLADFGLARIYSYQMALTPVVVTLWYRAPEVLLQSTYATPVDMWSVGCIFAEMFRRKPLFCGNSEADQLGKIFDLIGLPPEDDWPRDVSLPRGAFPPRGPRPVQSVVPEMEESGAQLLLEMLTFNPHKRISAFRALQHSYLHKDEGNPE

[7] = target: Cyclin-dependent kinase 1 (Homo sapiens, UniProt P06493); experiment: Inhibition of CDC2
Chain of Cyclin-dependent kinase 1 (P06493 whole entry): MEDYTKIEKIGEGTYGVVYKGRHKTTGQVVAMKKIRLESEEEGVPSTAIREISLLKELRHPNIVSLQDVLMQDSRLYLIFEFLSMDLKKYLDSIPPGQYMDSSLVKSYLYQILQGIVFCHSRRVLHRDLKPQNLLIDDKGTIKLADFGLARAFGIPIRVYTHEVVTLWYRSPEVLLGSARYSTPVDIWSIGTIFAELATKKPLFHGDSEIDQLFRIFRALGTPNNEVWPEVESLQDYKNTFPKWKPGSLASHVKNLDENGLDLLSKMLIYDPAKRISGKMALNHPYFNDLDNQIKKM

Row | SMILES | Activity [1] | IC50 [2] [µM] | further results
1 | COc1cc(OC)c2cc([N+](=O)[O-])c3c(C(=O)O)cc4c(c3c2c1)OCO4 [ARISTOLOCHIC ACID IV] | inactive | > 20 | 
2 | COc1ccc2nc3[nH]nc(C)c3c(OC)c2c1 |  | 0.02 | IC50 (MCF7 [3]): 3.5 µM; IC50 (Aurora kinase A): 5 µM; IC50 (MCF7 [4]): 2 µM; IC50 [5]: > 50 µM; IC50 [6]: 2 µM; IC50 [7]: 0.2 µM
3 | COc1cccc2c1cc1c3c(cc4c(c32)OCO4)C(=O)N1 [ARISTOLACTAM I] |  | 1.2 | 
4 | COc1cccc2c1c(Cl)c([N+](=O)[O-])c1c(C(=O)O)cc(O)c(O)c12 | inactive | 16.5 | 
5 | COc1cc2c3c(c1O)-c1c(ccc(OC)c1OC)C[C@@H]3N(C)CC2 [CORYDINE] |  | > 50 | 
6 | COc1cccc2c1cc([N+](=O)[O-])c1c(C(=O)O)cc3c(c12)OCO3 [ARISTOLOCHIC ACID] | inactive | > 20 | 
7 | O=C1Nc2cc3c(O)cc(O)cc3c3c4c(cc1c23)OCO4 | inactive | > 50 | 
8 | COc1cccc2c1cc1c3c(cc4c(c32)OCO4)C(=O)N1C | inactive | > 35 | 
9 | COc1cc2c(cc1OC)-c1c3c(cc4c1[C@H](C2)N(C)CC4)OCO3 [DICENTRINE] |  | > 50 | 
10 | CN1CCc2cc3c(c4c2[C@H]1Cc1ccccc1-4)OCO3 [ROEMERINE HBR] |  | > 50 | 
11 | O=C1Nc2cc3c(O)cccc3c3c4c(cc1c23)OCO4 | inactive | 0.035 | IC50 (Aurora kinase A): 2.14 µM; IC50 [5]: 35.3 µM; IC50 [6]: 1.42 µM; IC50 [7]: 0.214 µM
12 | COc1c(O)ccc2c1cc1c3c(cc4c(c32)OCO4)C(=O)N1 |  | 2.9 | 
13 | O=C(O)c1cc2c(c3c1c([N+](=O)[O-])cc1ccccc13)OCO2 [ARISTOLOCHIC ACID II] | inactive | > 20 | 
14 | COc1cccc2c1C[C@@H]1c3c(cc4c(c3-2)OCO4)CCN1C [STEPHANINE] |  | > 50 | 
15 | COC1=C[C@@H]2[C@@H]3Cc4ccc(OC)c(O)c4[C@]2(CCN3C)CC1=O [SINOMENINE] |  | > 50 | 
16 | COc1ccc2c(c1OC)CN1CCc3cc4c(cc3C1C2)OCO4 (stereo unspecified) [TETRAHYDROBERBERINE] |  | > 50 | 
17 | COc1ccc2c(c1O)-c1c(OC)c(OC)cc3c1[C@H](C2)N(C)CC3 [ISOCORYDINE] |  | > 50 | 
18 | COc1ccc2c(c1OC)CC1c3c(cc4c(c3-2)OCO4)CCN1C (stereo unspecified) [CREBANINE] |  | > 50 | 
19 | O=C1Nc2c(Cl)c3ccccc3c3c(O)c(O)cc1c23 | inactive | > 25 | 
20 | O=C(O)c1cc2c(c3c1c([N+](=O)[O-])cc1c(O)cccc13)OCO2 [ARISTOLOCHIC ACID III] | inactive | 15 | 
21 | CN1C(=O)c2cc3c(c4c2c1cc1c(O)cccc14)OCO3 | inactive | > 35 | 
22 | O=C(O)c1cc(O)c(O)c2c1c([N+](=O)[O-])cc1ccccc12 | inactive | 13.4 | 

Row | SMILES | Activity [1] | IC50 [2] [µM] | further results
23 | COc1ccc2c(c1O)-c1c(O)c(OC)cc3c1[C@H](C2)N(C)CC3 [CORYTUBERINE] |  | > 50 | 
24 | COc1cccc2c1cc([N+](=O)[O-])c1c(C(=O)O)cc(O)c(O)c12 | inactive | > 30 | 
25 | COc1cccc2c1c(OC)c([N+](=O)[O-])c1c(C(=O)O)cc3c(c12)OCO3 [7-METHOXY ARISTOLOCHIC ACID A] | inactive | > 20 | 
26 | O=C1Nc2cc3ccc(O)cc3c3c4c(cc1c23)OCO4 |  | 2.15 | 
27 | COc1cccc2c1c(Cl)c1c3c(cc(O)c(O)c32)C(=O)N1 | inactive | 10 | 
28 | COc1c(O)ccc2c1cc([N+](=O)[O-])c1c(C(=O)O)cc3c(c12)OCO3 [7-HYDROXY ARISTOLOCHIC A] | inactive | 25 | 
29 | COc1cc(O)cc2c1cc1c3c(cc4c(c32)OCO4)C(=O)N1 | inactive | > 35 | 
30 | O=C1Nc2cc3ccccc3c3c4c(cc1c23)OCO4 [ARISTOLACTAM II] | inactive | 15 | 
31 | O=C1Nc2cc3ccccc3c3c(O)c(O)cc1c23 | inactive | > 35 | 
32 | O=C(O)c1cc(O)c(O)c2c1c([N+](=O)[O-])cc1c(O)cccc12 | inactive | 5.7 | 
33 | COc1ccc2c(cc3c4c(cc5c(c42)OCO5)C(=O)N3)c1OC | inactive | > 15 | 
34 | O=C(O)c1cc(O)c(O)c2c1c([N+](=O)[O-])c(Cl)c1ccccc12 | inactive | 18 | 
35 | COc1cccc2c1cc1c3c(cc(O)c(O)c32)C(=O)N1 | inactive | > 35 | 
36 | O=C1Nc2cc3c(O)cccc3c3c(O)c(O)cc1c23 | inactive | > 35 | 
37 | COc1cc(O)cc2c1cc([N+](=O)[O-])c1c(C(=O)O)cc3c(c12)OCO3 [ARISTOLOCHIC D] | inactive | 25 | 
38 | COc1ccc2cc([N+](=O)[O-])c3c(C(=O)O)cc4c(c3c2c1)OCO4 | inactive | > 20 | 
39 | COc1c(O)cc2c3c(cc4ccc(O)cc4c13)NC2=O [ARISTOLACTAM AIIIA] |  |  | IC50 (MCF7 [3]): 3 µM; IC50 (Aurora kinase A): 5 µM; IC50 (MCF7 [4]): > 0.01 µM; IC50 [5]: > 50 µM; IC50 [6]: 2 µM; IC50 [7]: 0.2 µM
40 | O=C(O)c1cc2c(c3c1c([N+](=O)[O-])cc1ccc(O)cc13)OCO2 [ARISTOLOCHIC ACID C] | inactive | 30 | 
41 | COc1cc(OC)c2cc3c4c(cc5c(c4c2c1)OCO5)C(=O)N3 | inactive | > 15 | 
42 | O=C1Nc2cc3c(O)c(O)ccc3c3c4c(cc1c23)OCO4 | inactive | > 30 | 
43 | COC1=C[C@]23CCN(C)[C@H](Cc4ccc(OC)c(O)c42)C3=CC1=O [SALUTARIDINE] |  | > 50 | 
